Experiment [1] concerns rumen fluid. The experiment is described as follows: Methane and volatile fatty acid production by buffered rumen fluid incubated with hay barley mix (Example 1). The format is cell-based, cow. Conditions: 500 μg/ml; 16 hours, 39° C. The protocol: Thirty ml of a 33% buffered solution of rumen fluid withdrawn from a rumen canulated cow was incubated with 0.3 g of a 50:50 hay barley mix at 39° C. under anaerobic conditions.
(§1) After 16 hours the volume of gas produced and the percentage of methane in the headspace was measured and the resultant fermentation fluid was analysed for volatile fatty acids by HPLC.
Sandalwood oil, and control oils of commercial essential oil mixes or pure oils of eugenol or cinnamaldehyde were added in the amount of 500 μg/ml to the 30 ml buffered solution of rumen fluid prior to incubation. Sandalwood oil was obtained from Cardiff University and Sigma [SAFC (e.g. W30,050-0 lot no. 03722CC-396) and Sandalwood oil manufactured by Fluka (355263/1 lot no. 52706264).]

Experiment [2] in a line: Further sandalwood analogues: CH4 per bottle, compound in DMSO or ETOH (Example 7, Table 15). The format is cell-based. The settings on record: for CH4: single bottles rep a, b, c. The procedure: (§2) Further testing of sandalwood analogues was conducted following the protocols described in Examples 3 and 5.
Experiment [3] is described as follows: Further sandalwood analogues: volatile fatty acid and methane production (Example 7, Table 14). It counts as cell-based. The procedure:
as §2

Experiment [4] has as its system rumen fluid. The experiment is described as follows: Methane production by buffered rumen fluid, sandalwood oil and synthetic replacements (Example 4). It counts as cell-based, cow. The settings on record: 5, 50 or 100 or 500 pg/ml; 16 hours. The procedure:
Thirty ml of a 33% buffered solution of rumen fluid withdrawn from a rumen canulated cow was incubated with 0.3 g of a 50:50 hay barley mix at 39° C. under anaerobic conditions
as §1
Sandalwood oil from either Fluka or SAFC and two different batches of Javanol (Givaudan) or a single batch of Santaliff (International Flavors & Fragrances) (both Javanol and Santaliff are artifical Sandalwood replacements) were added in the amount of 5, 50 or 100 or 500 pg/ml to the 30 ml buffered solution of rumen fluid prior to incubation.

The text below walks through data of patent publication US20110165277A1, “Biological Materials and Uses Thereof” (priority 2008, published 2011).

Values joined by “and” are separate entries in the source; they are usually repeats but may differ in a detail not shown here. Identical values can stand only once.

For the compound `CC(C)=CCCC(C)=CC=O` [Citral], in the experiment with rumen fluid [1], the Acetate formation is reported as 2754 μmole/g of feed, the Butyrate formation is recorded as 72 μmole/g of feed, the Methane formation is 1461 μmole/g of feed and the Propionate formation is listed as 534 μmole/g of feed. Besides, the “Total volatile fatty acids formation” value in the experiment on rumen fluid [1] is recorded as 3361 μmole/g of feed.
For `O=CC=Cc1ccccc1` [Cinnamaldehyde] the same measures were 2832 μmole/g of feed, 73 μmole/g of feed, 1471 μmole/g of feed, 492 μmole/g of feed and 3398 μmole/g of feed.
On to `CCC(=CCC1CC=C(C)C1(C)C)CO` (stereo not shown) [Sanjinol, 2-ethyl-4(2,2,3-trimethyl-3-cyclopentenyl)-2-buten-1-ol], for which the “CH4 (mean of rep a-c)” value in experiment [2] (150 ug/30 ml in 200 ul DMSO) is 938.5618 µmol/g; in experiment [2] (150 ug/30 ml in 200 ul ETOH), 1153.269 µmol/g; in experiment [2] (15000 ug/30 ml in 200 ul DMSO) it was 743.6664 µmol/g; in experiment [2] (15000 ug/30 ml in 200 ul ETOH), 1158.419 µmol/g. Besides, the CH4 in experiment [2] (150 ug/30 ml in 200 ul DMSO) was 1107.671 µmol/g and 793.8945 µmol/g and 914.1195 µmol/g; in experiment [2] (150 ug/30 ml in 200 ul ETOH), 1064.879 µmol/g and 1232.288 µmol/g and 1162.641 µmol/g; in experiment [2] (15000 ug/30 ml in 200 ul DMSO), 615.569 µmol/g and 893.1559 µmol/g and 722.2742 µmol/g; in experiment [2] (15000 ug/30 ml in 200 ul ETOH), 1063.899 µmol/g and 1351.649 µmol/g and 1059.708 µmol/g. Moreover, the Acetate in experiment [3] (5 μg/ml) is recorded as 1978 μmol/g of feed added; in experiment [3] (50 μg/ml), 2192 μmol/g of feed added; in experiment [3] (100 μg/ml), 2359 μmol/g of feed added; in experiment [3] (500 μg/ml), 1849 μmol/g of feed added. The Butyrate in experiment [3] (5 μg/ml) is 448 μmol/g of feed added; in experiment [3] (50 μg/ml), 466 μmol/g of feed added; in experiment [3] (100 μg/ml), 512 μmol/g of feed added; in experiment [3] (500 μg/ml), 225 μmol/g of feed added. Besides, the Methane in experiment [3] (5 μg/ml) is given as 1107 μmol/g of feed added; in experiment [3] (50 μg/ml), 835 μmol/g of feed added; in experiment [3] (100 μg/ml), 795 μmol/g of feed added; in experiment [3] (500 μg/ml), 741 μmol/g of feed added. The Propionate was 426 μmol/g of feed added in experiment [3] (5 μg/ml), 579 μmol/g of feed added in experiment [3] (50 μg/ml), 697 μmol/g of feed added in experiment [3] (100 μg/ml) and 744 μmol/g of feed added in experiment [3] (500 μg/ml). In addition, the TVFA in experiment [3] (5 μg/ml) is 2852 μmol/g of feed added; in experiment [3] (50 μg/ml), 3237 μmol/g of feed added; in experiment [3] (100 μg/ml), 3568 μmol/g of feed added; in experiment [3] (500 μg/ml) it was 2818 μmol/g of feed added.
For `C=CCc1ccc(O)c(OC)c1` [Eugenol], in the experiment on rumen fluid [1], the Acetate formation is on record as 2817 μmole/g of feed, the Butyrate formation is 73 μmole/g of feed, the Methane formation is reported as 1436 μmole/g of feed and the Propionate formation was 590 μmole/g of feed. Further, in the experiment with rumen fluid [1], the “Total volatile fatty acids formation” value is 3479 μmole/g of feed.
In the case of `CC(=CCC1CC=C(C)C1(C)C)CO` (stereo not shown) [Santaliff, 2-Methyl-4-(2,2,3-trimethyl-3-cyclopenten-1-yl)-2-buten-1-ol], in experiment [3] (5 μg/ml), the Acetate is on record as 2174 μmol/g of feed added, the Butyrate is reported as 458 μmol/g of feed added, the Methane is given as 1031 μmol/g of feed added and the Propionate was 466 μmol/g of feed added. Further, the TVFA in experiment [3] (5 μg/ml) is recorded as 3098 μmol/g of feed added. Further, in experiment [3] (50 μg/ml), the Acetate is 2142 μmol/g of feed added, the Butyrate was 490 μmol/g of feed added, the Methane is on record as 1052 μmol/g of feed added and the Propionate is 442 μmol/g of feed added. For the same compound, the TVFA in experiment [3] (50 μg/ml) is given as 3074 μmol/g of feed added. In experiment [3] (100 μg/ml), the Acetate was 2301 μmol/g of feed added, the Butyrate was 462 μmol/g of feed added, the Methane is 844 μmol/g of feed added and the Propionate is reported as 543 μmol/g of feed added. Moreover, in experiment [3] (100 μg/ml), the TVFA was 3305 μmol/g of feed added. In experiment [3] (500 μg/ml), the Acetate is on record as 2101 μmol/g of feed added, the Butyrate was 296 μmol/g of feed added, the Methane was 801 μmol/g of feed added and the Propionate is 741 μmol/g of feed added. Further, the TVFA in experiment [3] (500 μg/ml) is given as 3138 μmol/g of feed added. The “methane compared to the control experiments” value in the experiment with rumen fluid [4] is listed as “significantly decreased”.
